This experiment addresses human PHD2 (Homo sapiens (Human), UniProt Q9GZT9). As to the kind of experiment: Test 2: human PHD2 inhibitory activity, fluorescence polarization assay of HIF-1α peptide proline hydroxylation. The conditions noted are these: for inhibition at 1 µM: read-out: Percent inhibition (% at 1 μM); for pIC50: human PHD2, fluorescence polarization assay, 20-min incubation at 30° C. The format is biochemical. Here is the method: (1) Expression and Preparation of Human PHD2
A registered sequence of human PHD2 (NM_022051) was introduced into pcDNA3.1/Hygro(+) vector (Invitrogen), and the sequence was verified. […] The suspension of disrupted cells was centrifuged at 4° C. and 100,000×g for 30 minutes and the supernatant was recovered as a cell lysate.
(2) Measurement of Human PHD2 Inhibitory Activity
The activity of human PHD2 enzyme was measured with a substrate which is a 19-residue partial peptide based on the sequence of HIF-1α; specifically, the hydroxylation of a proline residue in the peptide was measured by FP (Fluorescence Polarization).
A test compound and the substrate solution were preliminarily added onto 384-well plates and reaction was initiated by adding a human PHD2 enzyme solution (40 ng/well). After 20-min incubation at 30° C., an EDTA-containing quench solution was added and the amount of the proline residues hydroxylated via binding to an added HIF—OH antibody solution was quantified by fluorescence polarization.
The fluorescence polarization of each well was measured and the human PHD2 inhibitory activity of each test compound was calculated on the basis of the values for the test compound-free group.

[1] abbreviates: test compound's concentration 1 μM, Test 2, fluorescence polarization assay.

pIC50: −log10 of the molar value. Counter-ions that a name gives are not always drawn. Like-named read-outs stand apart in the source and are kept apart here.

human PHD2, sequence (Q9GZT9 whole entry): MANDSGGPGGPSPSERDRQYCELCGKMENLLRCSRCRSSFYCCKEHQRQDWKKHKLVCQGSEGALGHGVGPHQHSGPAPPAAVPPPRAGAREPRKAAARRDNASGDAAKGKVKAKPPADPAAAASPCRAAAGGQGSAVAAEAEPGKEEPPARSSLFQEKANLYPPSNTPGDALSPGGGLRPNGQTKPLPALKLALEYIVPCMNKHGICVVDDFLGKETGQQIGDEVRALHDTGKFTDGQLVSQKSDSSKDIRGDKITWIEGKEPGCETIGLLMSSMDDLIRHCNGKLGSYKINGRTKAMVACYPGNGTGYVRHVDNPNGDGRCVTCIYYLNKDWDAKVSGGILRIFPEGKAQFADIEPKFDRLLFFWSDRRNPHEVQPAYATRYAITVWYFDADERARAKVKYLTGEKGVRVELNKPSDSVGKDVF

On to `COc1ccc(CN2CCC(O)=C(C(=O)N(C)CC(=O)O)C2=O)cc1` [Ex. 9-5, N-{[4-Hydroxy-1-(4-methoxybenzyl)-2-oxo-1,2,5,6-tetrahydro-3-pyridinyl]carbonyl}-N-methylglycine], for which the inhibition at 1 µM under setting [1] turned out to be 3%. On the same count and under the same terms, next, `Cc1ccc(COc2ccc(CN3CCC(O)=C(C(=O)NCC(=O)O)C3=O)cn2)cc1` [Ex. 1-418]: 98%; `O=C(O)CNC(=O)C1=C(O)CCN(Cc2ccc(C(=O)NCCO)cc2)C1=O` [Ex. 1-347]: 55%. Same read-out and setting: next, `O=C(O)CNC(=O)C1=C(O)CCN(CC2CCC(Oc3ccccc3)CC2)C1=O` (centres unmarked) [Ex. 1-390]: 89%. Still for that read-out and setting: next, `CC1(C)CN(Cc2ccc(C3CC3)cc2)C(=O)C(C(=O)NCC(=O)O)=C1O` [Ex. 1-362]: 83%; `CC1(COc2ccc(CN3CCC(O)=C(C(=O)NCC(=O)O)C3=O)cc2)CC1` [Ex. 1-370]: 84%; `O=C(O)CNC(=O)C1=C(O)CCN(Cc2cncnc2)C1=O` [Ex. 1-320]: 57%. Consider `O=C(O)CNC(=O)C1=C(O)CCN(Cc2cnc(C(F)(F)F)nc2)C1=O` [Ex. 1-338], for which, under setting [1], the inhibition at 1 µM stood at 71%.

Turning to `CCc1ccc(O[C@H]2CC[C@H](CN3CCC(O)=C(C(=O)NCC(=O)O)C3=O)CC2)nc1` [Ex. 1-449], under setting [1], the inhibition at 1 µM came out at 99%. With `O=C(O)CNC(=O)C1=C(O)CN(Cc2ccc(-c3ccccc3)cc2)C1=O` [Ex. 1-318], the inhibition at 1 µM under setting [1] is 96%. The same measure, in the same setting: next, `O=C(O)CNC(=O)C1=C(O)CCN(Cc2ccc(OCCC(F)(F)F)c(F)c2)C1=O` [Ex. 1-384]: 82%.

As for `CC1(C)CC(O)=C(C(=O)NCC(=O)O)C(=O)N1CC(=O)NCc1ccc(-c2ccccc2)cc1` [Ex. 10-1, N-[(1-{2-[(4-Biphenylylmethyl)amino]-2-oxoethyl}-4-hydroxy-6,6-dimethyl-2-oxo-1,2,5,6-tetrahydro-3-pyridinyl)carbonyl]glycine sodium salt], the inhibition at 1 µM worked out at 34%.

With `O=C(O)CNC(=O)C1=C(O)CCN(Cc2ccc(-c3ccc(C4CC4)nc3)cc2)C1=O` [Ex. 1-414], under setting [1], the inhibition at 1 µM came to 96%. Still for that read-out and setting: next, `O=C(O)CNC(=O)C1=C(O)C[C@@H](c2ccccc2)N(Cc2ccc(OCC3CC3)cc2)C1=O` [Ex. 6-11]: 73%.

In the case of `O=C(O)CNC(=O)C1=C(O)CCN(C[C@H]2CC[C@H](OC3CCC3)CC2)C1=O` [Ex. 1-451], the inhibition at 1 µM under setting [1] was 82%.

As to `CC1C(O)=C(C(=O)NCC(=O)O)C(=O)N1Cc1ccc(-c2ccccc2)cc1` (centres unmarked) [Ex. 1-323], the inhibition at 1 µM under setting [1] stood at 87%.

Regarding `O=C(O)CNC(=O)C1=C(O)CCN(C[C@H]2CC[C@H](OCC3CC3)CC2)C1=O` [Ex. 1-445], the inhibition at 1 µM under setting [1] came out at 75%.

For `Cc1nc(COc2ccc(CN3CCC(O)=C(C(=O)NCC(=O)O)C3=O)cc2Cl)c(C)o1` [Ex. 1-394], the inhibition at 1 µM under setting [1] worked out at 83%. On the same count and under the same terms, next, `O=C(O)CNC(=O)C1=C(O)CCN(Cc2ccc(C(=O)O)cc2)C1=O` [Ex. 1-335]: 73%; `O=C(O)CNC(=O)C1=C(O)CCN(C[C@H]2CC[C@H](OCc3ccccc3)CC2)C1=O` [Ex. 1-444]: 88%; `CC1C(O)=C(C(=O)NCC(=O)O)C(=O)N1Cc1ccc(OCC2CC2)cc1` (centres unmarked) [Ex. 6-8]: 83%. The same measure, in the same setting: next, `O=C(O)CNC(=O)C1=C(O)CCN(Cc2ccc(-c3cncnc3)cc2)C1=O` [Ex. 1-316]: 87%. Still for that read-out and setting: next, `O=C(O)CNC(=O)C1=C(O)CCN(Cc2ccc(OCCC(F)(F)F)cc2)C1=O` [Ex. 1-382]: 83%; `COc1ccc(-c2ccc(CN3CCC(O)=C(C(=O)NCC(=O)O)C3=O)cn2)cc1` [Ex. 2-35]: 96%. For the compound `O=C(O)CNC(=O)C1=C(O)C2(CCCCC2)N(CC2CCC(c3ccccc3)CC2)C1=O` (centres unmarked) [Ex. 1-332], under setting [1], the inhibition at 1 µM came to 73%. Still for that read-out and setting: next, `O=C(O)CNC(=O)C1=C(O)CCN(C[C@H]2CC[C@H](OCc3ccc(F)cc3)CC2)C1=O` [Ex. 1-438]: 90%; `CN(Cc1ccc(F)cc1)C(=O)CN1C(=O)C(C(=O)NCC(=O)O)=C(O)CC1(C)C` [Ex. 10-4]: 10%.

Compound `Cc1ccc(Oc2ncc(CN3CCC(O)=C(C(=O)NCC(=O)O)C3=O)cc2F)cc1` [Ex. 1-393] gave a pIC50 of 7.49. Moreover, the inhibition at 1 µM under setting [1] was determined as 98%. As to `O=C(O)CNC(=O)C1=C(O)CCN(Cc2ccc(COc3ccccc3)cc2)C1=O` [Ex. 1-416], the inhibition at 1 µM under setting [1] is 95%.

Turning to `O=C(O)CNC(=O)C1=C(O)CCN(CC2(c3ccccc3)CC2)C1=O` [Ex. 1-399], the inhibition at 1 µM under setting [1] came to 55%. On the same count and under the same terms, next, `CC1(C)C(O)=C(C(=O)NCC(=O)O)C(=O)N1Cc1ccc(-c2ccccc2)cc1` [Ex. 1-324]: 91%. On the same count and under the same terms, next, `O=C(O)CNC(=O)C1=C(O)CCN(C[C@@H]2CC[C@@H](c3ccccc3)C2)C1=O` [Ex. 1-395]: 90%; `O=C(O)CNC(=O)C1=C(O)CCN(Cc2ccc(-c3ccc(C4CC4)cc3)cc2)C1=O` [Ex. 2-49]: 93%.

Consider `O=C(O)CNC(=O)C1=C(O)CCN(Cc2ccc(Oc3ccc(C(F)(F)F)nc3)cc2)C1=O` [Ex. 1-365], for which the pIC50 was 7.25. The inhibition at 1 µM under setting [1] was 97%. Regarding `COc1ccc(-c2ccc(CN3CC4(CCC4)C(O)=C(C(=O)NCC(=O)O)C3=O)cc2)cn1` [Ex. 1-361], the inhibition at 1 µM under setting [1] came out at 93%. For the compound `O=C(O)CNC(=O)C1=C(O)C(F)(F)CN(Cc2ccc(C(F)(F)F)cc2)C1=O` [Ex. 1-334], the inhibition at 1 µM under setting [1] turned out to be 96%.

With `O=C(O)CNC(=O)C1=C(O)CCN(Cc2ccc(-c3ccc(OC(F)(F)F)cc3)nc2)C1=O` [Ex. 2-36], the inhibition at 1 µM under setting [1] was determined as 95%. Consider `O=C(O)CNC(=O)C1=C(O)CCN(Cc2ccc(Oc3ncccn3)cc2)C1=O` [Ex. 1-226], for which the pIC50 was 6.39. The inhibition at 1 µM under setting [1] is 84%. As for `Cc1cc(CN2CCC(O)=C(C(=O)NCC(=O)O)C2=O)ccc1OCCC(F)(F)F` [Ex. 1-383], the inhibition at 1 µM under setting [1] was determined as 83%. Still for that read-out and setting: next, `Cc1cc(CN2CCC(O)=C(C(=O)NCC(=O)O)C2=O)ccc1OCc1ccc(OC(F)(F)F)cc1` [Ex. 1-389]: 69%; `COc1cccnc1-c1ccc(CN2CCC(O)=C(C(=O)NCC(=O)O)C2=O)cc1` [Ex. 1-425]: 90%.

As for `COc1ncccc1-c1ccc(CN2CCC(O)=C(C(=O)NCC(=O)O)C2=O)cc1` [Ex. 2-3, N-({4-Hydroxy-1-[4-(2-methoxy-3-pyridinyl)benzyl]-2-oxo-1,2,5,6-tetrahydro-3-pyridinyl}carbonyl)glycine sodium salt], under setting [1], the inhibition at 1 µM is 92%. On the same count and under the same terms, as for `CN1CCC(O)=C(C(=O)NCC(=O)O)C1=O` [Ex. 1-309], the figure is 58%; as for `CC1(C)CC(O)=C(C(=O)NCC(=O)O)C(=O)N1CC1CCN(Cc2ccccc2)CC1` [Ex. 6-26], 16%.

On to `O=C(O)CNC(=O)C1=C(O)CCN(Cc2ccc(C(=O)NCC(=O)O)cc2)C1=O` [Ex. 1-351], for which the inhibition at 1 µM under setting [1] is 81%. `CC1(COc2ccc(CN3CCC(O)=C(C(=O)NCC(=O)O)C3=O)cn2)CC1` [Ex. 1-396]: the inhibition at 1 µM under setting [1] is 89%. Still for that read-out and setting: as for `O=C(O)CNC(=O)C1=C(O)C[C@@H](c2cccnc2)N(Cc2ccc(OCC3CC3)cc2)C1=O` [Ex. 6-20], the figure is 84%; as for `O=C(O)CNC(=O)C1=C(O)CCN(Cc2ccc(OCc3ccc(Cl)cc3)nc2)C1=O` [Ex. 1-419], 98%; as for `O=C(O)CNC(=O)C1=C(O)CCN(C[C@H]2CC[C@@H](Oc3ccc(F)cn3)CC2)C1=O` [Ex. 1-433], 76%. Still for that read-out and setting: next, `O=C(O)CNC(=O)C1=C(O)CCN(Cc2ccc(OCc3ccc(OC(F)(F)F)cc3)cc2)C1=O` [Ex. 1-375]: 85%. Turning to `Cc1ccc(Oc2ncc(CN3CCC(O)=C(C(=O)NCC(=O)O)C3=O)cc2Cl)cc1` [Ex. 1-392], the pIC50 was 7.59. Besides, under setting [1], the inhibition at 1 µM amounted to 98%. `O=C(O)CNC(=O)C1=C(O)C[C@H](c2cccnc2)N(Cc2ccc(OCC3CC3)cc2)C1=O` [Ex. 6-19]: under setting [1], the inhibition at 1 µM was found to be 72%. The same measure, in the same setting: next, `CC1(C)C(O)=C(C(=O)NCC(=O)O)C(=O)N1Cc1ccc(Oc2ccc(C(F)(F)F)cn2)cc1` [Ex. 6-6]: 87%; `COc1ncc(-c2ccc(CN3CCC(O)=C(C(=O)NCC(=O)O)C3=O)cc2)s1` [Ex. 2-42]: 96%.

As for `O=C(O)CNC(=O)C1=C(O)CCN(Cc2cnc(OCCC3CC3)c(Cl)c2)C1=O` [Ex. 1-420], under setting [1], the inhibition at 1 µM was 92%.

`Cc1cc(CN2CCC(O)=C(C(=O)NCC(=O)O)C2=O)ccc1OCc1ccc(F)cc1` [Ex. 1-388]: the inhibition at 1 µM under setting [1] worked out at 92%. Still for that read-out and setting: next, `O=C(O)CNC(=O)C1=C(O)CCN(C[C@H]2CC[C@H](Oc3ccc(C(F)(F)F)cn3)CC2)C1=O` [Ex. 1-437]: 92%; `COc1ccccc1-c1ccc(CN2CCC(O)=C(C(=O)NCC(=O)O)C2=O)cn1` [Ex. 2-52]: 95%; `O=C(O)CNC(=O)C1=C(O)CCN(Cc2ccc(OCCO)cc2)C1=O` [Ex. 1-344]: 76%. With `CC1(C)CC(O)=C(C(=O)NCC(=O)O)C(=O)N1Cc1ccc(OCC2CC2)nc1` [Ex. 6-29], the inhibition at 1 µM under setting [1] was 69%.

For the compound `COc1ccc(-c2ccc(CN3CC(C)(C)C(O)=C(C(=O)NCC(=O)O)C3=O)cc2)cn1` [Ex. 1-358], the inhibition at 1 µM under setting [1] came to 88%.
